Test results as given in US20250195464A1, “ALOTAKETAL COMPOUNDS AND DERIVATIVES THEREOF FOR USE AS ANTIVIRAL AGENTS” (priority 2022, published 2025).
Read-outs that look alike come from different tables or passages of the source.

Columns and labels:
SARS-CoV-2 Omicron BA.1 = test: microbe, parasite or virus in culture; assay type: cell-based; conditions: for inhibition of SARS-CoV-2 Omicron, dsRNA and nucleocapsids as indicators of viral load: Omicron BA.1, at the concentrations tested; for potency compared with Alotaketal C: dependence on R4 chirality; for SI (selectivity index): CC50 / EC50 BA.1
[1] = Cytotoxicity assay, PrestoBlue cell viability; assay type: cell-based; conditions: human; concentration required to reduce cell viability by 50%, Calu-3 cells, 48-hr incubation
Protocol: Calu-3 cells were seeded with 10^4 cells/well in 96-well plates. Twenty-four hr after seeding media was aspirated and serially diluted compounds (described above) were added for an additional 48-hr. incubation. Cellular viability was assessed with Presto Blue Cell Viability Assay™ (Thermo Fisher Scientific™) according to the manufacturer's instructions. Cells were incubated with 5% PrestoBlue™ reagent for 2 hr before reading on the SpectraMax Gemini™ XS spectrofluorometer (Molecular Devices, LLC.™) set at excitation and emission wavelengths of 555 and 585 nm, respectively. Cellular viability was expressed relative (%) to vehicle-treated cells. Data are from at least three independent experiments.

mNG-SARS-CoV-2 [2] = assay type: cell-based; conditions: Huh7.5.1 cells pretreated 3 hours with serial dilutions
SARS-CoV-2 Omicron BA.2 = test: microbe, parasite or virus in culture; assay type: cell-based; conditions: Severe acute respiratory syndrome coronavirus 2, Calu-3 cells
[3] = test system: SARS-CoV-2 Delta B.1.617.2; test: microbe, parasite or virus in culture; assay type: cell-based
mNG-SARS-CoV-2 [4] = test: in vitro; conditions: human
SARS-CoV-2 Omicron BA.5 = test: microbe, parasite or virus in culture; assay type: cell-based; conditions: Severe acute respiratory syndrome coronavirus 2, Calu-3 cells
proteins Kinase C (PKC) = conditions: Wang 2016; cited from earlier work
SARS-CoV-2 VIDO = SARS-CoV-2 VIDO infection of Calu-3 cells, nucleocapsid and dsRNA staining; assay type: cell-based; conditions: Severe acute respiratory syndrome coronavirus 2, 3 hr pretreatment
mNG-SARS-CoV-2 [5] = test: microbe, parasite or virus in culture
[6] = Severe acute respiratory syndrome coronavirus 2, Calu-3, read-out: EC50 BA.1

SMILES | SARS-COV-2 Activity (SARS-CoV-2 Omicron BA.1) | inhibition of SARS-CoV-2 Omicron, dsRNA and nucleocapsids as indicators of viral load (SARS-CoV-2 Omicron BA.1; Calu-3 cells) | potency compared with Alotaketal C (SARS-CoV-2 Omicron BA.1) | CC50 at 48 h [1] [µM] | SI (selectivity index) (SARS-CoV-2 Omicron BA.1) | EC50 (SARS-CoV-2 Omicron BA.1; [6]) [µM] | further results
CC1=C[C@H]2O[C@]3(C=C(CO)[C@H]2CC1=O)CCCCO3 [Compound I10-H, (2S,4aR,8aR)-4-(hydroxymethyl)-7-methyl-3′,4a,4′,5′,6′,8a-hexahydrospiro[chromene-2,2′-pyran]-6(5H)-one] | no | no inhibition activity | decreased | ≥ 100 | – | – | –
CC(C)=CCC(C)CCCC1CCC[C@]2(C=C(CO)[C@H]3CC(=O)C(C)=C[C@H]3O2)O1 (stereo in doubt) [Compound I10-Cit4, (2S,4aR,6'S,8aR)-6′-(4,7-dimethyloct-6-en-1-yl)-4-(hydroxymethyl)-7-methyl-3′,4a,4′,5′,6′,8a-hexahydrospiro[chromene-2,2′-pyran]-6(5H)-one] | yes | good inhibition | – | ≥ 12700 | 50872 | 0.25 | –
CCCCCCCCCC[C@H]1CCC[C@]2(C=C(CO)[C@H]3CC(=O)C(C)=C[C@H]3O2)O1 [Compound I10-Dec01, (2S,4aR,6'S,8aR)-4-(hydroxymethyl)-7-methyl-6′-decyl-3′,4a,4′,5′,6′,8a-hexahydrospiro[chromene-2,2′-pyran]-6(5H)-one] | no | no inhibition activity | decreased | ≥ 339 | – | – | –
CCCCCCCCCC[C@@H]1CCC[C@]2(C=C(CO)[C@H]3CC(=O)C(C)=C[C@H]3O2)O1 [Compound I10-Dec02, (2S,4aR,6′R,8aR)-4-(hydroxymethyl)-7-methyl-6′-decyl-3′,4a,4′,5′,6′,8a-hexahydrospiro [chromene-2, 2′-pyran]-6 (5H)-one] | yes | good inhibition | – | 74.3 | 297.2 | 0.25 | –
CCCCCCCC[C@@H]1CCC[C@]2(C=C(CO)[C@H]3CC(=O)C(C)=C[C@H]3O2)O1 [Compound I10-Oct, (2S,4aR,6′R,8aR)-4-(hydroxymethyl)-7-methyl-6′-octyl-3′,4a,4′,5′,6′,8a-hexahydrospiro[chromene-2,2′-pyran]-6(5H)-one] | yes | good inhibition | – | ≥ 101 | 100.6 | 1 | –
CCCCCCCCCCCC[C@@H]1CCC[C@]2(C=C(CO)[C@H]3CC(=O)C(C)=C[C@H]3O2)O1 [Compound I10-DD2, (2S,4aR,6′R,8aR)-4-(hydroxymethyl)-7-methyl-6′-dodecyl-3′,4a,4′,5′,6′,8a-hexahydrospiro[chromene-2,2′-pyran]-6(5H)-one] | yes | good inhibition | – | ≥ 113 | 56.7 | 2 | –
CC(C)C[C@H](NC(=O)OCc1ccccc1)C(=O)N[C@@H](C[C@@H]1CCNC1=O)C(O)S(=O)(=O)[O-].[Na+] (stereo partly drawn) [GC376] | – | – | – | – | – | – | reduction of mNG-SARS-CoV-2 infection (mNG-SARS-CoV-2 [2]): dose-dependent reduction
CC(=O)O[C@]1(C)C[C@@H](/C=C(\C)CCC=C(C)C)O[C@@]2(C=C(CO)[C@H]3CC(=O)C(C)=C[C@H]3O2)C1 [Alotaketal C] | yes | – | – | ≥ 100 | 181.8 | 0.55 | EC50 (SARS-CoV-2 Omicron BA.1; Severe acute respiratory syndrome coronavirus 2, Calu-3 cells, dsRNA marker, read-out: dsRNA (EC50), Omicron BA.1): 0.4 µM; EC50 (SARS-CoV-2 Omicron BA.1; Severe acute respiratory syndrome coronavirus 2, Calu-3 cells, nucleocapsid marker, read-out: Nucleocapsid (EC50), Omicron BA.1): 0.7 µM; EC50 (SARS-CoV-2 Omicron BA.2; dsRNA marker, read-out: dsRNA (EC50), Omicron BA.2): 0.7 µM; EC50 (SARS-CoV-2 Omicron BA.2; nucleocapsid marker, read-out: Nucleocapsid (EC50), Omicron BA.2): 0.7 µM; EC50 ([3]; Calu-3 cells, dsRNA marker, read-out: dsRNA (EC50), Delta B.1.617.2): 3.9 µM; EC50 ([3]; Calu-3 cells, nucleocapsid marker, read-out: Nucleocapsid (EC50), Delta B.1.617.2): 4.9 µM; EC50 ([3]; Severe acute respiratory syndrome coronavirus 2, Calu-3, Calu-3 cells, dsRNA marker, read-out: dsRNA (EC50), Delta B.1.617.2): 3.96 µM; EC50 ([3]; Severe acute respiratory syndrome coronavirus 2, Calu-3, Calu-3 cells, nucleocapsid marker, read-out: Nucleocapsid (EC50), Delta B.1.617.2): 4.89 µM; selectivity ratio (mNG-SARS-CoV-2 [4]): 850; EC50 (SARS-CoV-2 Omicron BA.5; dsRNA marker, read-out: dsRNA (EC50), Omicron BA.5): 0.7 µM; EC50 (SARS-CoV-2 Omicron BA.5; nucleocapsid marker, read-out: Nucleocapsid (EC50), Omicron BA.5): 0.3 µM; activation of protein kinase C (proteins Kinase C (PKC)): activates; EC50 (SARS-CoV-2 VIDO; dsRNA marker, read-out: dsRNA EC50, VIDO): 1.33 µM; EC50 (SARS-CoV-2 VIDO; nucleocapsid marker, read-out: Nucleocapsid EC50, VIDO): 1.44 µM; EC50 (mNG-SARS-CoV-2 [5]; Severe acute respiratory syndrome coronavirus 2, Calu-3, read-out: EC50, inhibition of mNG-SARS-CoV-2 infection): 0.11 µM; EC50 (mNG-SARS-CoV-2 [5]; Severe acute respiratory syndrome coronavirus 2, Calu-3, read-out: EC50, secondary screening of hits): 0.08 µM; inhibition at 50 µM (mNG-SARS-CoV-2 [5]; Severe acute respiratory syndrome coronavirus 2, Calu-3, read-out: inhibition of SARS-CoV-2 infection): 90.6%
CC(C)=CCC(C)CCCC1CCC[C@]2(C=C(CO)[C@H]3CC(=O)C(C)=C[C@H]3O2)O1 (stereo in doubt) [Compound I10-Cit3, (2S,4aR,6′R,8aR)-6′-(4,7-dimethyloct-6-en-1-yl)-4-(hydroxymethyl)-7-methyl-3′,4a,4′,5′,6′,8a-hexahydrospiro[chromene-2,2′-pyran]-6(5H)-one] | no | no inhibition activity | decreased | ≥ 100 | – | – | –
